Assay results reported in ChEMBL document CHEMBL5113529, “Design, Synthesis, and Biological Evaluation of Dual-Target COX-2/CYP51 Inhibitors for the Treatment of Fungal Infectious Diseases” (J Med Chem, 2022).
Active and inactive are the calls of the source. No cut-off for these calls is given here.

Assays:
[1] = Toxicity in mouse infected with Candida albicans assessed as spleen injury at 10 ug per 20 g, ip administered on day 2, 4, 6, 8, 10 and 12 and measured on day 14 by H and E staining based assay; assay type: organism-based; conditions: in vivo, 336 h, dose 10 µg, time 14 day
[2] = molecular target: T1, Prostaglandin G/H synthase 2 (Homo sapiens, UniProt P35354); test: Inhibition of COX-2 (unknown origin) using arachidonic acid as substrate preincubated for 10 mins followed by substrate addition and measured after 2 mins by immunoassay
T1 sequence (P35354 whole entry): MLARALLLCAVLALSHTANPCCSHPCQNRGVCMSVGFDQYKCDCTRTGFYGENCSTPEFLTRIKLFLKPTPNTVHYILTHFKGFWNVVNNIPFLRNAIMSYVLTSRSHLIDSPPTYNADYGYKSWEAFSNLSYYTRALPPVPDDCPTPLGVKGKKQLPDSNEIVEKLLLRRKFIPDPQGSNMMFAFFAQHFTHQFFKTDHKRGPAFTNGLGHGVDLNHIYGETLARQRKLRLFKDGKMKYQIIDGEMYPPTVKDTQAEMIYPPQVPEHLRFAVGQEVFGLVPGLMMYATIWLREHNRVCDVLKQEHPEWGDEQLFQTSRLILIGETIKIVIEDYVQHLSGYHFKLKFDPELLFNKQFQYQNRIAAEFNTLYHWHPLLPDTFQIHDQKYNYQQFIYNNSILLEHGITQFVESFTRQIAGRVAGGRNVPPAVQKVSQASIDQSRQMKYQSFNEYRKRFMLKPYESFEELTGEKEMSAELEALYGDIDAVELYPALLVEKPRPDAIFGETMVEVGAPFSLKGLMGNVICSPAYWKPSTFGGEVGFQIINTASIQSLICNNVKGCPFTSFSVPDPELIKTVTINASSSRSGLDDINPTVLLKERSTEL

[3] = Toxicity in mouse infected with Candida albicans assessed as lung injury at 10 ug per 20 g, ip administered on day 2, 4, 6, 8, 10 and 12 and measured on day 14 by H and E staining based assay; assay type: organism-based; conditions: in vivo, 336 h, dose 10 µg, time 14 day
[4] = molecular target: Prostaglandin G/H synthase 1 (Homo sapiens, UniProt P23219); test: Inhibition of COX-1 (unknown origin) using arachidonic acid as substrate preincubated for 10 mins followed by substrate addition and measured after 2 mins by immunoassay
Chain of Prostaglandin G/H synthase 1 (P23219 whole entry): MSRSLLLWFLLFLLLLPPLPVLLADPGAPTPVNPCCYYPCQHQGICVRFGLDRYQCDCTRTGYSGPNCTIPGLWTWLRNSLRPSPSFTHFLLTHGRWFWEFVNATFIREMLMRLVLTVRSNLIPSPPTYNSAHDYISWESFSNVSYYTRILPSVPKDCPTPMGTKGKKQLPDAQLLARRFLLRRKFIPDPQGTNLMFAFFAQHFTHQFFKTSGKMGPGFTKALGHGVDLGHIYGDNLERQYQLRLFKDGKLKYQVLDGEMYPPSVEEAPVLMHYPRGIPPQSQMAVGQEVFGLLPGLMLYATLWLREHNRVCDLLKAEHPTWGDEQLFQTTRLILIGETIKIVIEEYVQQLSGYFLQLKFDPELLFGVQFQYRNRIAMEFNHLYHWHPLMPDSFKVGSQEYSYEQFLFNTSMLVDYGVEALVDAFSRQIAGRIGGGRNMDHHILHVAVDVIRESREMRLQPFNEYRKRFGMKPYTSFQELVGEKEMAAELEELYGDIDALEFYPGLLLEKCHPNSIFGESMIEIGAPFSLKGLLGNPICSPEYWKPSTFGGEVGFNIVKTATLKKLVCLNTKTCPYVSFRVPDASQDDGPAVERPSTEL

[5] = tested on: Candida albicans; test: Antifungal actvity against Candida albicans ATCC SC5314 infected in mouse assessed as shrinking of infection region at 10 ug per 20 g, ip administered on day 2, 4, 6, 8, 10 and 12 and measured on day 14; assay type: functional, organism-based; conditions: dose 10.0 µg, time 14.0 day
[6] = tested on: Candida albicans; test: Induction of morphological changes in Candida albicans ATCC SC5314 assessed as cell leakage measured for 96 hrs by transmission electron microscopic analysis; assay type: functional, organism-based
[7] = species on record: Mus musculus; test: Antiinflammatory activity against mouse infected with Candida albicans ATCC SC5314 assessed as reduction in NLRP3 expression in spleen by Western blot analysis; assay type: functional, organism-based
[8] = tested on: Candida albicans; test: Induction of morphological changes in Candida albicans ATCC SC5314 assessed as ribosome abscission measured for 48 to 72 hrs by transmission electron microscopic analysis; assay type: functional, organism-based; conditions: time 48-72 hrs
[9] = Toxicity in Candida albicans ATCC SC5314 infected-mouse assessed as effect on body weight at 10 ug per 20 g, ip administered on day 2, 4, 6, 8, 10 and 12 and measured on day 14; assay type: organism-based; conditions: in vivo, 336 h, dose 10 µg, time 14 day
[10] = tested on: Candida albicans; test: Induction of morphological changes in Candida albicans ATCC SC5314 assessed as disappearance of nucleus measured for 48 to 72 hrs by transmission electron microscopic analysis; assay type: functional, organism-based; conditions: time 48-72 hrs
[11] = tested on: Candida albicans; test: Induction of morphological changes in Candida albicans ATCC SC5314 assessed as edema cavitation measured for 48 to 72 hrs by transmission electron microscopic analysis; assay type: functional, organism-based; conditions: time 48-72 hrs
[12] = Toxicity in mouse infected with Candida albicans assessed as liver injury at 10 ug per 20 g, ip administered on day 2, 4, 6, 8, 10 and 12 and measured on day 14 by H and E staining based assay; assay type: organism-based; conditions: in vivo, 336 h, dose 10 µg, time 14 day
[13] = species on record: Mus musculus; test: Antiinflammatory activity in mouse infected with Candida albicans ATCC SC5314 assessed as reduction in COX-2 expression in spleen by hematoxylin staining based inverted microscopic analysis (reference value: 83.52 a.u.); assay type: functional
[14] = Toxicity in mouse infected with Candida albicans assessed as kidney injury at 10 ug per 20 g, ip administered on day 2, 4, 6, 8, 10 and 12 and measured on day 14 by H and E staining based assay; assay type: organism-based; conditions: in vivo, 336 h, dose 10 µg, time 14 day
[15] = tested on: Candida albicans; test: Antifungal actvity against Candida albicans ATCC SC5314 infected in mouse assessed as reduction in infection at 10 ug per 20 g, ip administered on day 2, 4, 6, 8, 10 and 12 and measured on day 14; assay type: functional, organism-based; conditions: time 14.0 day
[16] = tested on: Candida albicans; test: Antifungal activity against Candida albicans ATCC SC5314 assessed as induction of ROS production by measuring fluorescence intensity incubated for 12 hrs by KGT010-1 staining based fluorescence microscopy; assay type: functional, organism-based
[17] = Toxicity in mouse infected with Candida albicans assessed as BUN level in plasma at 10 ug per 20 g, ip administered on day 2, 4, 6, 8, 10 and 12 and measured on day 14 in presence of naproxen (reference value: 8.2 +/- 0.5 mmol/L); assay type: organism-based; conditions: in vivo, 336 h, dose 10 µg, time 14 day
[18] = tested on: Aspergillus fumigatus; test: Antifungal activity against Aspergillus fumigatus KM8001 assessed as fungal growth inhibition measured after 72 hrs in presence of naproxen by double dilution method; assay type: functional
[19] = tested on: Candida albicans; test: Antifungal activity against Candida albicans ATCC SC5314 assessed as fungal growth inhibition measured after 72 hrs in presence of naproxen by double dilution method; assay type: functional
[20] = tested on: Candida albicans; test: Antifungal activity against fluconazole- resistant Candida albicans 17# assessed as fungal growth inhibition measured after 72 hrs in presence of naproxen by double dilution method; assay type: functional
[21] = tested on: Candida albicans; test: Antifungal actvity against Candida albicans ATCC SC5314 infected in mouse assessed as reduction in fungal infection at 10 ug per 20 g, ip administered on day 2, 4, 6, 8, 10 and 12 and measured on day 14 in presence of naproxen; assay type: functional, organism-based; conditions: dose 10.0 µg, time 14.0 day
[22] = tested on: Candida albicans; test: Antifungal activity against fluconazole- resistant Candida albicans 632 assessed as fungal growth inhibition measured after 72 hrs in presence of naproxen by double dilution method; assay type: functional
[23] = Toxicity in mouse infected with Candida albicans assessed as ALT level in plasma at 10 ug per 20 g, ip administered on day 2, 4, 6, 8, 10 and 12 and measured on day 14 in presence of naproxen (reference value: 43.6 +/- 4.4 IU/L); assay type: organism-based; conditions: in vivo, 336 h, dose 10 µg, time 14 day
[24] = tested on: Candida albicans; test: Antifungal activity against fluconazole- resistant Candida albicans 901 assessed as fungal growth inhibition measured after 72 hrs in presence of naproxen by double dilution method; assay type: functional
[25] = tested on: Candida tropicalis; test: Antifungal activity against Candida tropicalis ATCC 1369 assessed as fungal growth inhibition measured after 72 hrs in presence of naproxen by double dilution method; assay type: functional
[26] = species on record: Mus musculus; test: Immunostimulatory activity in mouse infected with Candida albicans ATCC SC5314 assessed as reduction in PD-L1 expression in spleen in presence of naproxen by western blot analysis relative to control; assay type: functional; design: scale not given: the % may be the effect or the level left
[27] = species on record: Mus musculus; test: Immunostimulatory activity in mouse infected with Candida albicans ATCC SC5314 assessed as increase in CD3+ expression level in spleen in presence of naproxen by immunohistochemical analysis; assay type: functional, organism-based

SMILES	Activity [1]	IC50 [2] [µM]	Activity [3]	IC50 [4] [µM]	Activity [5]	Activity [7]	Activity [9]	Activity [12]	Activity [13] [a.u.]	Activity [14]	Activity [15]	Activity [16]	other results
COc1ccc2cc([C@H](C)C(=O)NC(Cn3cncn3)C(=O)c3ccccc3)ccc2c1 (some centres undefined)	Non-Toxic	1.96	Non-Toxic	> 50	Active	Active	Non-Toxic	Non-Toxic	20.15	Non-Toxic	Active		Activity [6]: Active; Activity [8]: Active; Activity [10]: Active; Activity [11]: Active
CC(C)NC(=O)[C@@H](Cn1ccnc1)NC(=O)[C@@H](C)c1cccc(C(=O)c2ccccc2)c1		3.02		> 50	Active	Active	Non-Toxic		20.15			Active	
OC(Cn1cncn1)(Cn1cncn1)c1ccc(F)cc1F [FLUCONAZOLE]	Non-Toxic		Non-Toxic					Non-Toxic		Non-Toxic	Active	Active	Activity [17]: 9.5 IU/L; MIC50 [18]: 4 µg/mL; MIC50 [19]: 0.25 µg/mL; MIC50 [20]: 4 µg/mL; Activity [21]: Active; MIC50 [22]: 4 µg/mL; Activity [23]: 42.6 IU/L; MIC50 [24]: 4 µg/mL; MIC50 [25]: 0.5 µg/mL; Activity [26]: 14.27%; Activity [27]: Active
